In publication PMC4788259 (PLoS Neglected Tropical Diseases, 2016):
Values joined by “and” are separate entries in the source; they are usually repeats but may differ in a detail not shown here. Equal entries are not always repeated. Where two headings read alike, the source gives them in different places.

What was measured:
[1] = tested on: E. multilocularis germinal layer cells; assay: CellTiter-Glo viability assay on germinal layer cell cultures; format: cell-based; details: Echinococcus multilocularis, 120 h, 5 days, read-out: E.m. GL cells (IC50)
Experimental: To assess the effects of MMV665807 on the viability of parasite cells, germinal layer cells were extracted according to Spiliotis et al. After overnight aggregate formation, 15 units of cells were distributed to a black 384 well plate (Nunc, Thermo Scientific, Reinach, Switzerland) in 12.5 μL medium. A concentration series (final concentrations of 3, 1, 0.3, 0.1, 0.03, 0.01 μM) of MMV665807, MMV665794 and mefloquine were prepared in medium and added 1:2 to the cells. For mefloquine, the concentration range was adjusted in a subsequent setup up to 100 μM. As negative control, DMSO was added accordingly. After 5 days of culture at 37°C under humid nitrogen atmosphere, 25 μL CellTiter-Glo (Promega, Dübendorf, Switzerland) including 1% TritonX-100 was added. Plates were incubated for 15 minutes on a shaker at room temperature and complete disruption of all cell aggregates was checked for before measurement of luminescence on a 2300 Enspire multilabel reader (Perkin-Elmer). Mean values and standard deviations were calculated and DMSO values set to 100% viability. The IC50 value was calculated in Microsoft Excel 2010 after logit-log transformation and averages as well as standard deviations of four independent setups were calculated.

[2] = tested on: hERG; parameters: method as in earlier work; details: ref MMV, cited from earlier work
[3] = tested on: newly transformed schistosomula; parameters: method as in PMID 24416463; details: in vitro; read-out: IC50 against newly transformed schistosomula; cited from earlier work
[4] = parameters: method as in earlier work; details: MMS, Human; ref MMV; cited from earlier work
[5] = cited from earlier work
[6] = tested on: E. multilocularis metacestode vesicles; details: 12 days, alamarBlue vesicle viability assay
[7] = parameters: method as in earlier work; details: PLS, ref MMV; cited from earlier work
[8] = parameters: method as in earlier work; details: ref MMV; cited from earlier work
[9] = parameters: method as in earlier work; details: MMS, Mouse; ref MMV; cited from earlier work
[10] = tested on: E. multilocularis metacestodes; assay: Intraperitoneal treatment of secondary infected mice; format: in vivo, BALB/c mice; details: 4 weeks, MMV665807 100 mg/kg i.p. three times per week, ABZ 200 mg/kg p.o. 5 days per week
Experimental: (§1) Animals were kept at a temperature-controlled 12/12 hours light cycle with food and water ad libitum and according to the Swiss Animal protection law. For the in vivo treatment of MMV665807, BALB/c mice (from Charles River, Sulzfeld, Germany), at the age of 8 weeks with an average body weight of 20 g, were i.p. infected with 200 μL metacestodes vesicle suspension. This material was prepared from in vitro-cultured metacestodes (strain H95), which were disintegrated by pressing the parasites through a 1 mL pipette tip. Parasite tissue was centrifuged at 500 x g for 5 min at room temperature before being mixed 1:1 in PBS.
I.p. drug treatments were initiated 2 weeks post-infection. 32 infected mice were randomly separated into 4 groups with 2 times 4 animals per cage. All animals were exposed to 4 weeks of treatment, with five consecutive days of drug application followed by a 2 day recovery period without treatment. Treatment groups were defined as follows: group 1 (control) received 50 μL of corn oil by gavage on 5 days per week, and an i.p. injection of DMSO in corn oil (4 μL DMSO and 46 μL corn oil) on three days per week; group 2 also received corn oil by gavage 5 days per week, and an i.p. injection of MMV665807 (100 mg/kg in 4 μL DMSO plus 46 μL corn oil) three times per week; group 3 was treated with the standard albendazole treatment (albendazole in corn oil, 200 mg/kg/ day for 5 days each week) and also received an i.p. injection of 4 μl DMSO suspended in 46 μl corn oil three times per week; group 4 received a combined treatment consisting of albendazole in corn oil by gavage (200 mg/kg/day 5 days per week) and an i.p. injection of MMV665807 (100 mg/kg three times per week). After 4 weeks of treatment, mice were euthanized and the parasite mass resected and measured as described above. Statistical analyses were performed as described above.

[11] = tested on: E. multilocularis metacestodes; assay: Peroral treatment of secondary infected mice; format: in vivo, BALB/c mice; details: p.o. gavage 5 days per week, 4 weeks, MMV665807 100 mg/kg, ABZ 200 mg/kg
Experimental: as §1
Peroral (p.o.) drug treatments by gavage were initiated 6 weeks post-infection and performed as follows: group 1 received no treatment at all; group 2 received 100 μL corn oil containing 7.8 μL DMSO; group 3 mice were treated with 100 μL corn oil containing albendazole (ABZ) in 7.8 μL DMSO, in order to obtain a dosage of 200 mg/kg body weight (positive control); group 4 was treated with 100 μL corn oil containing MMV665807 in 7.8 μL DMSO, resulting in 100 mg/kg body weight. All mice were treated for a total time period of 4 weeks, with consecutive treatment during 5 days per week, and interruption of treatment for 2 days each week. At the end of the treatment, all mice were sedated by isoflurane and subsequently euthanized by CO2. All parasite tissue was resected, placed into a petri dish, and the parasite mass was weighed. Statistical analysis of the in vivo experiments was performed in R version 3.0.1. The data distribution was checked by Shapiro-Wilk test and eventual differences between treatment groups identified by the non-parametric Kruskal-Wallis test. P values were calculated by the non-parametric Wilcoxon […] test with Bonferroni-adjustment. Boxplot visualizations of the data were prepared in Microsoft Excel 2010.

[12] = tested on: M. tuberculosis; parameters: method as in PMID 23211970; details: cited from earlier work
[13] = parameters: method as in earlier work; details: HMS, Human; ref MMV; cited from earlier work
[14] = PO, administered dose 119 μmol/kg, ref MMV

O=C(Nc1cccc(C(F)(F)F)c1)c1cc(Cl)ccc1O [MMV665807]
IC50 [1]: 600 ± 370 nM
hERG % I (1uM) ([2]; 1uM): 18%
hERG % I (11uM) ([2]; 11uM): 40%
hERG activity level [2]: Weakly active
IC50 [3]: 1800 nM
CL [4]: 66.8 µL/min/mg
CLh [4]: 15.9 mL/min/kg
CLint [4]: 66.1 mL/min/kg
T1/2 [4]: 41.5 min
AUC0-last [5, 14]: 0.264 µM·h
Cmax [5, 14]: 62.3 nM
MRT0-last [5, 14]: 314 min
Tlast [5, 14]: 9.00 h
Tmax [5, 14]: 380 min
plasma level ([5]; single dose p.o. application of 50 mg/kg, ref MMV (S3 Table)): 60 nM
lowest concentration that almost completely abolishes viability of the metacestode tissue [6]: 1.6 µM
% Remaining after Incubation (60 min) CD-1 Mouse Plasma [7]: 102.5%
Kinetic Solubility pH=7.4 [8]: 1.12 µg/mL and 3.55 µM
CL [9]: 190.4 µL/min/mg
CLh [9]: 80.4 mL/min/kg
CLint [9]: 754.0 mL/min/kg
T1/2 [9]: 14.6 min
parasite weight compared to placebo group ([10]; start 2 weeks post-infection): did not result in a reduction
adverse effects during treatment [10]: No adverse effects
parasite weight compared to control ([11]; start 6 weeks post-infection): no effect
adverse effects during treatment [11]: No adverse effects
MIC [12]: 3.1 to 6.3 µM
CLint [13]: 107.6 mL/min/kg
t½ [13]: 23.3 min
